FR50 data for 6 compounds are collected here from ChEMBL document CHEMBL3046582, “Antifeedant activity of sesquiterpenes from celastraceae” (1997).

Structures are written as SMILES.

Common to all, as to format: functional
Experiment [1] has as its system Spodoptera littoralis. As to the kind of experiment: Antifeedant activity against newly ecdysed fifth-instar larval stage of Spodoptera littoralis in compound-pretreated lettuce leaf disks assessed as consumed area of leaf disks at 1 ug/cm'2 measured at 30 min intervals for 4-5 hr post-drug exposure by choice test.
For experiment [2], the system named is Spodoptera littoralis. The experiment can be described thus: Antifeedant activity against newly ecdysed fifth-instar larval stage of Spodoptera littoralis in compound-pretreated lettuce leaf disks assessed as consumed area of leaf disks at 0.1 ug/cm'2 measured at 30 min intervals for 4-5 hr post-drug exposure by choice test.
Experiment [3] deals with Spodoptera littoralis. The experiment can be described thus: Antifeedant activity against newly ecdysed fifth-instar larval stage of Spodoptera littoralis in compound-pretreated lettuce leaf disks assessed as consumed area of leaf disks at 10 ug/cm'2 measured at 30 min intervals for 4-5 hr post-drug exposure by choice test.
Experiment [4] relates to Spodoptera littoralis. As to the kind of experiment: Antifeedant activity against newly ecdysed fifth-instar larval stage of Spodoptera littoralis in compound-pretreated lettuce leaf disks assessed as consumed area of leaf disks at 0.01 ug/cm'2 measured at 30 min intervals for 4-5 hr post-drug exposure by choice test.

With `CC(=O)O[C@@H]1[C@@H]2[C@@H](OC(C)=O)[C@@]3(OC2(C)C)[C@@](OC(C)=O)([C@@H](OC(C)=O)CC[C@]3(C)O)[C@@H]1OC(=O)c1ccccc1`, the FR50 in the experiment on Spodoptera littoralis [1] stood at 0.2; in the experiment on Spodoptera littoralis [2], 0.64; with Spodoptera littoralis [3], 0.03.

Take `CC(=O)O[C@H]1CC[C@](C)(O)[C@]23OC(C)(C)[C@H](C[C@H](OC(=O)c4ccccc4)[C@]12OC(C)=O)[C@H]3OC(C)=O`: the values for the FR50 in the experiment with Spodoptera littoralis [1], in the experiment with Spodoptera littoralis [2] and with Spodoptera littoralis [3] were 0.12, 0.4 and 0.11, respectively.

Turning to `CC(=O)O[C@H]1C[C@](C)(O)[C@]23OC(C)(C)[C@H]([C@@H](OC(C)=O)[C@@H](OC(=O)c4ccccc4)[C@]2(OC(C)=O)C1)[C@H]3OC(C)=O`, the FR50 in the experiment on Spodoptera littoralis [1] is recorded as 0.18; in the experiment with Spodoptera littoralis [2], 1.1; with Spodoptera littoralis [3], 0.1.

`COCCCC[C@@H]1[C@@H]2[C@@H](OC(C)=O)[C@@]3(OC2(C)C)[C@@](OC(C)=O)([C@@H](OC(C)=O)CC[C@]3(C)O)[C@@H]1OC(=O)c1ccccc1`: the FR50 in the experiment with Spodoptera littoralis [4] is listed as 0.69; in the experiment on Spodoptera littoralis [1], 0; in the experiment on Spodoptera littoralis [2], 0.23; in the experiment with Spodoptera littoralis [3] it was 0.

With `CC(=O)O[C@H]1[C@@H]2[C@@H](OC(=O)c3cccnc3)[C@@]3(OC2(C)C)[C@@](C)([C@@H](OC(=O)c2ccccc2)CC[C@]3(C)O)[C@@H]1OC(C)=O`, the FR50 in the experiment with Spodoptera littoralis [1] was found to be 0.15; in the experiment on Spodoptera littoralis [2] it was 0.45; in the experiment on Spodoptera littoralis [3] it was 0.04.

As for `CC(=O)O[C@H]1C[C@](C)(O)[C@]23OC(C)(C)[C@H]([C@@H](C(C)=O)[C@@H](OC(=O)c4ccccc4)[C@]2(OC(C)=O)[C@H]1OC(C)=O)[C@H]3OC(C)=O`, the FR50 was 0.24 with Spodoptera littoralis [1], 0.4 in the experiment with Spodoptera littoralis [2] and 0.05 with Spodoptera littoralis [3].
